Patent US9139567B2, “Arylpyrazole ethers as inhibitors of leukotriene A4 hydrolase” (Boehringer Ingelheim International GmbH, priority 2011, dated 2015)

Key:
[1] = test system: LTB4 production in human whole blood; test: LTB4 production inhibition assay in human whole blood (calcimycin-stimulated); format: cell-based; details: heparinized human whole blood, 15 min 37° C., calcimycin 20 μM 30 min, plasma LTB4 by HTRF
Description: Compounds of the invention are additionally tested in a human whole blood assay to determine their ability to inhibit the synthesis of LTB4 in a cellular system. Compounds are combined with heparinized human whole blood and incubated for 15 minutes at 37° C. Calcimycin (20 μM final, prepared in phosphate-buffered saline, pH 7.4) is then added and the mixture is incubated for another 30 minutes at 37° C. The samples are centrifuged for 5 min at low speed (1500×g) and the plasma layer is removed. Plasma LTB4 concentrations are then measured using an antibody-based homogenous time-resolved fluorescence method (CisBio, Bedford, Mass.).

human LTA4 hydrolase = target: T1, human LTA4 hydrolase (Homo sapiens, UniProt P09960); test: LTA4H enzyme assay (cleavage of Arg-AMC, fluorescence); format: biochemical; details: LTA4H enzyme 1 nM, Arg-AMC substrate 50 μM, room temperature 1 h
T1 sequence (P09960 1-611): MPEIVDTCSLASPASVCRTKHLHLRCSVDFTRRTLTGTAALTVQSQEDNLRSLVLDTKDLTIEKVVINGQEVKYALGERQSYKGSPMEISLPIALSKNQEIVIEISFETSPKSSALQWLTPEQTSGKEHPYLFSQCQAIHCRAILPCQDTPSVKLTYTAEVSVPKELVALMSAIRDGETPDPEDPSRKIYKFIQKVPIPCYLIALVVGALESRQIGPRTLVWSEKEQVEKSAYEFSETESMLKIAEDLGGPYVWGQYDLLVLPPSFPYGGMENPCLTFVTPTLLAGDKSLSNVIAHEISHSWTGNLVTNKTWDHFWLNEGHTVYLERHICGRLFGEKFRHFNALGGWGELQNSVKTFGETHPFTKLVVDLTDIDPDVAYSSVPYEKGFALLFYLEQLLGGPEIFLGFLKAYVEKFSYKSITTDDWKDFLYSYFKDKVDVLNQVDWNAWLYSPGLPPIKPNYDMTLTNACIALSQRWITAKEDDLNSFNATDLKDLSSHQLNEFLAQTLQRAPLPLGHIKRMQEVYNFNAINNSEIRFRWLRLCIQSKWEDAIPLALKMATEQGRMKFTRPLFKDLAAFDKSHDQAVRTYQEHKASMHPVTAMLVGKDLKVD
Description: Compounds are assessed for the ability to interact with human LTA4 hydrolase in an enzymatic assay that measures the ability of the enzyme to cleave the peptide bond of arginyl-aminomethylcoumarin (Arg-AMC). LTA4H Enzyme (1 nM final), Arg-AMC substrate (50 μM final), and compound are combined in a reaction buffer (50 mM Tris-HCl (pH 7.5), 100 mM KCl, 0.5% bovine serum albumin) at room temperature for 1 h. The formation of product is assessed by measuring the fluorescence of aminomethylcoumarin product (excitation wavelength 380 nm/emission wavelength 460 nm).

| Structure (SMILES) | IC50 [1] [nM] | IC50 (human LTA4 hydrolase) [nM] |
| --- | --- | --- |
| c1cc(-c2ccc(Oc3ccc(OCc4ccc5ncsc5c4)cc3)cc2)[nH]n1 [Example 71, 6-({4-[4-(1H-pyrazol-5-yl)phenoxy]phenoxy}methyl)-1,3-benzothiazole] | ≥ 5000 | 59.5 |
| c1cc(-c2ccc(Oc3ccc(OCc4nccs4)cc3)cc2)[nH]n1 [Example 73, 2-({4-[4-(1H-pyrazol-5-yl)phenoxy]phenoxy}methyl)-1,3-thiazole] | 4100 | 10.4 |
| c1cnc(COc2ccc(Oc3ccc(-c4ccn[nH]4)cc3)cc2)nc1 [Example 75, 2-({4-[4-(1H-pyrazol-5-yl)phenoxy]phenoxy}methyl)pyrimidine] | 2840 | 6.6 |
| c1cc(-c2ccc(Oc3ccc(OCc4ccc5[nH]cnc5c4)cc3)cc2)[nH]n1 [Example 81, 5-({4-[4-(1H-pyrazol-5-yl)phenoxy]phenoxy}methyl)-1H-benzimidazole] | ≥ 5000 | 14.2 |
| c1cc(-c2ccc(Oc3ccc(OCCC4CCOCC4)cc3)cc2)[nH]n1 [Example 82, 5-(4-{4-[2-(tetrahydro-2H-pyran-4-yl)ethoxy]phenoxy}phenyl)-1H-pyrazole] | 2670 | 7.9 |
| O=C1CC[C@H](COc2ccc(Oc3ccc(-c4ccn[nH]4)cc3)cc2)O1 [Example 85, (5R)-5-({4-[4-(1H-pyrazol-5-yl)phenoxy]phenoxy}methyl)dihydrofuran-2(3H)-one] | ≥ 5000 | 0.8 |
| O=C1CC[C@@H](COc2ccc(Oc3ccc(-c4ccn[nH]4)cc3)cc2)O1 [Example 86, (5S)-5-({4-[4-(1H-pyrazol-5-yl)phenoxy]phenoxy}methyl)dihydrofuran-2(3H)-one] | 4500 | 0.8 |
| O=C1OCC[C@@H]1Oc1ccc(Oc2ccc(-c3ccn[nH]3)cc2)cc1 [Example 87, (3S)-3-{4-[4-(1H-pyrazol-5-yl)phenoxy]phenoxy}dihydrofuran-2(3H)-one] | ≥ 5000 | 23.1 |
| O=C1OCC[C@H]1Oc1ccc(Oc2ccc(-c3ccn[nH]3)cc2)cc1 [Example 88, (3R)-3-{4-[4-(1H-pyrazol-5-yl)phenoxy]phenoxy}dihydrofuran-2(3H)-one] | ≥ 5000 | 16.4 |
| c1cc(-c2ccc(Oc3ccc(OCC4CCCCO4)cc3)cc2)[nH]n1 (stereo not shown) [Example 91, 5-{4-[4-(tetrahydro-2H-pyran-2-ylmethoxy)phenoxy]phenyl}-1H-pyrazole] | ≥ 5000 | 10.7 |
| c1cc(-c2ccc(Oc3ccc(OCCC4CCCCO4)cc3)cc2)[nH]n1 (stereo not shown) [Example 93, 5-(4-{4-[2-(tetrahydro-2H-pyran-2-yl)ethoxy]phenoxy]phenyl)-1H-pyrazole] | 4600 | 26.9 |

These reach a lower IC50 [1]. Values come first.

| IC50 [1] [nM] | IC50 (human LTA4 hydrolase) [nM] | Structure (SMILES) |
| --- | --- | --- |
| 2550 | 17.9 | Cc1ncoc1COc1ccc(Oc2ccc(-c3ccn[nH]3)cc2)cc1 [Example 74, 4-methyl-5-({4-[4-(1H-pyrazol-5-yl)phenoxy]phenoxy}methyl)-1,3-oxazole] |
| 2550 | 6.1 | c1cc(-c2ccc(Oc3ccc(OCCc4cnoc4)cc3)cc2)[nH]n1 [Example 72, 4-(2-{4-[4-(1H-pyrazol-5-yl)phenoxy]phenoxy}ethyl)isoxazole] |
| 2390 | 4.9 | c1cc(-c2ccc(Oc3ccc(OCc4cncs4)cc3)cc2)[nH]n1 [Example 70, 5-({4-[4-(1H-pyrazol-5-yl)phenoxy]phenoxy}methyl)-1,3-thiazole] |
| 2110 | 2.7 | CC(COc1ccc(Oc2ccc(-c3ccn[nH]3)cc2)cc1)Cn1cccn1 (stereo not shown) [Example 79, 1-(2-methyl-3-{4-[4-(1H-pyrazol-5-yl)phenoxy]phenoxy}propyl)-1H-pyrazole] |
| 2000 | 14.1 | c1cc(-c2ccc(Oc3ccc(OC4CCCOC4)cc3)cc2)[nH]n1 (stereo not shown) [Example 94, 5-{4-[4-(tetrahydro-2H-pyran-3-yloxy)phenoxy]phenyl}-1H-pyrazole] |
| 1770 | 4.8 | c1cc(-c2ccc(Oc3ccc(OC4CCOCC4)cc3)cc2)[nH]n1 [Example 89, 5-{4-[4-(tetrahydro-2H-pyran-4-yloxy)phenoxy]phenyl}-1H-pyrazole] |
| 1740 | 2.9 | c1cc(-c2ccc(Oc3ccc(OCC4CCCOC4)cc3)cc2)[nH]n1 (stereo not shown) [Example 83, 5-{4-[4-(tetrahydro-2H-pyran-3-ylmethoxy)phenoxy]phenyl}-1H-pyrazole] |
| 1650 | 2.8 | c1cc(-c2ccc(Oc3ccc(OCc4cnco4)cc3)cc2)[nH]n1 [Example 78, 5-({4-[4-(1H-pyrazol-5-yl)phenoxy]phenoxy}methyl)-1,3-oxazole] |
| 1650 | 1.9 | c1cnn(-c2ccc(COc3ccc(Oc4ccc(-c5ccn[nH]5)cc4)cc3)cn2)c1 [Example 80, 2-(1H-pyrazol-1-yl)-5-({4-[4-(1H-pyrazol-5-yl)phenoxy]phenoxy}methyl)pyridine] |
| 1460 | 4.6 | c1cc(-c2ccc(Oc3ccc(OCC4CCOCC4)cc3)cc2)[nH]n1 [Example 84, 5-{4-[4-(tetrahydro-2H-pyran-4-ylmethoxy)phenoxy]phenyl}-1H-pyrazole] |
| 1420 | 0.9 | c1cc(-c2ccc(Oc3ccc(OCc4ccc5nccn5c4)cc3)cc2)[nH]n1 [Example 76, 6-({4-[4-(1H-pyrazol-5-yl)phenoxy]phenoxy}methyl)imidazo[1,2-a]pyridine] |
| 1200 | 3.3 | c1cc(-c2ccc(Oc3ccc(OCC4CCOC4)cc3)cc2)[nH]n1 (stereo not shown) [Example 92, 5-{4-[4-(tetrahydrofuran-3-ylmethoxy)phenoxy]phenyl}-1H-pyrazole] |
| 777 | 2.4 | c1cc(-c2ccc(Oc3ccc(O[C@H]4CCOC4)cc3)cc2)[nH]n1 [Example 90, 5-(4-{4-[(3S)-tetrahydrofuran-3-yloxy]phenoxy}phenyl)-1H-pyrazole] |
| 492 | 1 | Cc1nnsc1COc1ccc(Oc2ccc(-c3ccn[nH]3)cc2)cc1 [Example 77, 4-Methyl-5-{4-[4-(2H-pyrazol-3-yl)-phenoxy]-phenoxymethyl}-[1,2,3]thiadiazole] |
| 367 | 1.6 | O=C1CC[C@@H](Oc2ccc(Oc3ccc(-c4ccn[nH]4)nc3)cc2)CN1 [Example 95, (5R)-5-(4-{[6-(1H-pyrazol-5-yl)pyridin-3-yl]oxy}phenoxy)piperidin-2-one] |
